According to publication PMC11212140, “Molecular Bidents with Two Electrophilic Warheads as a New Pharmacological Modality” (ACS Central Science, 2024):

Assays:
AurA = test system: T1, AurA; assay: KiNativ profiling in H3255 cells; assay type: cell-based, human; conditions: 2.5 µM
T1 construct: purchased ActivX Biosciences (KiNativ)
Summary of the method: (§1)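 Frozen cell pellets were analysed by KiNativ (ActivX). Before freezing, H3255 cells had been incubated two hours with ZNL-0056 at 2.5 μM or with DMSO, rinsed in cold PBS, and spun down at 1350 g.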

MELK = test system: T2, MELK; assay: KiNativ profiling in H3255 cells; assay type: cell-based, human; conditions: 2.5 µM; Lys2; DLKPENLLFDEYHK
T2 construct: purchased ActivX Biosciences (KiNativ)
Summary of the method: as §1

MST2 = test system: T3, MST2; assay: KiNativ profiling in H3255 cells; assay type: cell-based, human; conditions: 2.5 µM; Lys1; ESGQVVAIKQVPVESDLQEIIK
T3 construct: purchased ActivX Biosciences (KiNativ)
Summary of the method: as §1

MST3 = test system: T4, MST3; assay: KiNativ profiling in H3255 cells; assay type: cell-based, human; conditions: 2.5 µM; Lys2; DIKAANVLLSEHGEVK
T4 construct: purchased ActivX Biosciences (KiNativ)
Summary of the method: as §1

NEK3 = test system: T5, NEK3; assay: KiNativ profiling in H3255 cells; assay type: cell-based, human; conditions: 2.5 µM; Activation Loop; SKNIFLTQNGK
T5 construct: purchased ActivX Biosciences (KiNativ)
Summary of the method: as §1

ZC2/TNIK = test system: T6, ZC2/TNIK; assay: KiNativ profiling in H3255 cells; assay type: cell-based, human; conditions: 2.5 µM; Lys1; TGQLAAIKVMDVTGDEEEEIKQEINMLKK
T6 construct: purchased ActivX Biosciences (KiNativ)
Summary of the method: as §1

JAK1 domain2 = test system: T7, JAK1 domain2; assay: KiNativ profiling in H3255 cells; assay type: cell-based, human; conditions: 2.5 µM
T7 construct: JAK1 domain2; purchased ActivX Biosciences (KiNativ)

LKB1 = test system: T8, LKB1; assay: KiNativ profiling in H3255 cells; assay type: cell-based, human; conditions: 2.5 µM; Lys2; DIKPGNLLLTTGGTLK
T8 construct: purchased ActivX Biosciences (KiNativ)

CLK1 = test system: T9, CLK1; assay: KiNativ profiling in H3255 cells; assay type: cell-based, human; conditions: 2.5 µM; Lys2; LTHTDLKPENILFVQSDYTEAYNPK
T9 construct: purchased ActivX Biosciences (KiNativ)
Description: (§2) Cellular target engagement assays […]
(§3) H3255 cells were plated with 6.5x10^6 per condition in fresh media in 15 cm plates and treated the 80% confluency for 2 hours with DMSO or 2.5 μM of ZNL-0056. To harvest cells, plates were washed 3 times with cold PBS, then collected by scraping into 4 mL of cold PBS containing protease and phosphatase inhibitors. Cells were pelleted by centrifugation at 1350 g at 4 ℃ for 5 minutes and immediately frozen in liquid nitrogen. The frozen samples were sent to ActivX Biosciences (La Jolla, CA) for the remainder of the KiNativ profiling experiment4. […]

MARK3 = test system: T10, MARK3; assay: KiNativ profiling in H3255 cells; assay type: cell-based, human; conditions: 2.5 µM; Lys1; EVAIKIIDKTQLNPTSLQK
T10 construct: purchased ActivX Biosciences (KiNativ)
Description: as §2, §3

TAO1, TAO3 = assay: KiNativ profiling in H3255 cells; assay type: cell-based, human; conditions: 2.5 µM; Lys2; DIKAGNILLTEPGQVK
Description: as §2, §3

H3255 cells = assay: Cell viability assay (CellTiter-Glo); assay type: cell-based; conditions: Homo sapiens, NCI-H3255, 72 h of treatment
Description: (A) Dose–response curves for ZNL-0056 and osimertinib in H3255 cells following 72 h of treatment. Cell viability was assessed with CellTiter-Glo. Data are presented as the mean ± SEM (n = 4). Representative data from three independent experiments are shown. (B) Immunoblot assessment of the effect of ZNL-0056 on EGFR signaling pathway in H3255 cells after 6 h treatment. Representative blots from two independent experiments are shown. […] TEXT PRINTED IN THE PICTURE: (A) ZNL-0056: H3255: IC50 (nM): 471.3 | (A) Osimertinib: H3255: IC50 (nM): 27.76 […]
For infection of Ba/F3 cells, 2.5 mL of viral supernatant and 8 μg/mL polybrene was added to 2.5 million cells per well in six-well plates. […]
Cells were lysed in RIPA buffer (150 mM NaCl, 1.0% IGEPAL® CA-630, 0.5% sodium deoxycholate, 0.1% SDS, 50 mM Tris, pH 8.0) (Sigma, Cat# R0278) with protease inhibitor and phosphatase inhibitor (Roche). The protein concentrations were measured by BCA analysis (Thermo Fisher Scientific, Cat # PI23225). […]
or IRDye 680RD goat anti-Mouse IgG (LICOR Biosciences , Cat # 926-68070) secondary antibodies at room temperature for 1 hour. The membranes were detected on Odyssey CLx system. […]
treatment. Cell viability was determined by using CellTiter-Glo (Promega #G7571) according to the manufacturer’s instructions, measuring luminescence using an Envision plate-reader (PerkinElmer Inc.). […]

[1] = Activation Loop, IGDFGLTKAIETDKEYYTVK
[2] = Lys1, YDPEGDNTGEQVAVKSLKPESGGNHIADLKK

| Structure (SMILES) | Inhibition (AurA; Lys1, FILALKVLFK) [%] | Inhibition (AurA; Lys2, DIKPENLLLGSAGELK) [%] | Inhibition (MELK) [%] | Inhibition (MST2) [%] | Inhibition (MST3) [%] | Inhibition (NEK3) [%] | Inhibition (ZC2/TNIK) [%] | Inhibition (JAK1 domain2; [1]) [%] | Inhibition (JAK1 domain2; [2]) [%] | Inhibition (LKB1) [%] | Inhibition (CLK1) [%] | Inhibition (MARK3) [%] | Inhibition (TAO1, TAO3) [%] | IC50 (H3255 cells) [nM] |
| --- | --- | --- | --- | --- | --- | --- | --- | --- | --- | --- | --- | --- | --- | --- |
| C=CC(=O)Nc1cc(Nc2nccc(-c3cn(C)c4ccccc34)n2)c(OC)cc1N(C)CCN(C)C [Osimertinib, osimertinib, reference compound] | -3.3 | 2.6 | -15.3 | -13.5 | -15.5 | -0.9 | 19.5 | -24.5 | -22.2 | -3.9 | 21.2 | -26.0 | 6.6 | 27.8 |
| C=CC(=O)Nc1cc(C(=O)Nc2nc3cccc(C)c3n2[C@@H]2CCCCN(C(=O)C=C)C2)cs1 [ZNL-0056] | -0.0337 | -15.7 | 23.0 | -6.8 | -1.1 | -5.3 | 32.8 | 4.7 | 4.4 | 0.756 | -15.4 | 17.8 | -18.6 | 471 |
